Results published in ChEMBL document CHEMBL1125536, “Studies on neurokinin antagonists. 2. Design and structure-activity relationships of novel tripeptide substance P antagonists, N alpha-[N alpha-(N alpha-acetyl-L-threonyl)-N1-formyl-D-tryptophyl]-N- methyl-N-(phenylmethyl)-L-phenylalaninamide and its related compounds” (J Med Chem, 1992).
Square brackets hold non-standard residues; d marks the D form. Peptide text beside a SMILES is read from it. * marks the point of attachment. Boc = CC(C)(C)OC(=O)*; OBn = c1ccc(CO*)cc1; For = O=C*

species on record: Cavia porcellus; assay: Compound was tested for the inhibition of SP-induced contraction of isolated guinea pig trachea strips; assay type: functional

Row | SMILES | IC50 [nM]
1 | CC(=O)NC(C(=O)N[C@H](Cc1cn(C=O)c2ccccc12)C(=O)N[C@@H](Cc1ccccc1)C(=O)N(C)Cc1ccccc1)C(C)O (stereo partly drawn) | 2300

target: not listed separately; assay: Inhibition of [3H]SP binding to guinea pig lung membranes

Row | SMILES | IC50 [nM]
2 | C[C@@H](O)[C@H](NC(=O)CN)C(=O)N[C@H](Cc1cn(C=O)c2ccccc12)C(=O)N[C@@H](Cc1ccccc1)C(=O)N(C)Cc1ccccc1 | 230
3 | CN(Cc1ccccc1)C(=O)[C@H](Cc1ccccc1)NC(=O)[C@@H](Cc1cn(C=O)c2ccccc12)NC(=O)C1CC(O)CN1C(=O)OC(C)(C)C (stereo partly drawn) | 200
4 | CC(=O)NC(CO)C(=O)N[C@H](Cc1cn(C=O)c2ccccc12)C(=O)N[C@@H](Cc1ccccc1)C(=O)N(C)Cc1ccccc1 (stereo partly drawn) | 50
5 | CC(C)(C)OC(=O)N[C@@H](CCC(N)=O)C(=O)N[C@H](Cc1cn(C=O)c2ccccc12)C(=O)N[C@@H](Cc1ccccc1)C(=O)OCc1ccccc1 (Boc-Gln-[dW](For)-Phe-OBn) | 90
6 | CN(Cc1ccccc1)C(=O)[C@H](Cc1ccccc1)NC(=O)[C@@H](Cc1cn(C=O)c2ccccc12)NC(=O)[C@H](CCC(N)=O)NC(=O)OC(C)(C)C | 48
7 | CCN(CC)CCC(=O)NC(C(=O)N[C@H](Cc1cn(C=O)c2ccccc12)C(=O)N[C@@H](Cc1ccccc1)C(=O)N(C)Cc1ccccc1)C(C)O (stereo partly drawn) | 20
8 | CC(O)C(NC(=O)N1CCOCC1)C(=O)N[C@H](Cc1cn(C=O)c2ccccc12)C(=O)N[C@@H](Cc1ccccc1)C(=O)N(C)Cc1ccccc1 (stereo partly drawn) | 20
9 | CC(C)(C)OC(=O)N[C@@H](CCC(N)=O)C(=O)N[C@H](Cc1cn(C=O)c2ccccc12)C(=O)N[C@@H](Cc1ccccc1)C(=O)NCc1ccccc1 | 860
10 | CC(O)C(NC(=O)OC(C)(C)C)C(=O)N[C@H](Cc1cn(C=O)c2ccccc12)C(=O)N[C@@H](Cc1ccccc1)C(=O)N(C)Cc1ccccc1 (stereo partly drawn) | 60
11 | CC(C)(C)OC(=O)N[C@@H](CCC(N)=O)C(=O)N[C@H](Cc1cn(C=O)c2ccccc12)C(=O)N[C@@H](Cc1ccccc1)C(=O)CCc1ccccc1 | 430
12 | CC(=O)NC(C(=O)N[C@H](Cc1cn(C=O)c2ccccc12)C(=O)N[C@@H](Cc1ccccc1)C(=O)N(C)Cc1ccccc1)C(C)O (stereo partly drawn) | 5.8
13 | CN(Cc1ccccc1)C(=O)[C@H](Cc1ccccc1)NC(=O)[C@@H](Cc1cn(C=O)c2ccccc12)NC(=O)CC(NC(=O)OC(C)(C)C)C(N)=O (stereo partly drawn) | 180
14 | CC(O)C(C(=O)N[C@H](Cc1cn(C=O)c2ccccc12)C(=O)N[C@@H](Cc1ccccc1)C(=O)N(C)Cc1ccccc1)N(C)C(=O)OC(C)(C)C (stereo partly drawn) | 290
15 | CC(=O)NC(Cc1c[nH]cn1)C(=O)N[C@H](Cc1cn(C=O)c2ccccc12)C(=O)N[C@@H](Cc1ccccc1)C(=O)N(C)Cc1ccccc1 (stereo partly drawn) | 100
16 | CN(C)C(=O)CCC(NC(=O)OC(C)(C)C)C(=O)N[C@H](Cc1cn(C=O)c2ccccc12)C(=O)N[C@@H](Cc1ccccc1)C(=O)N(C)Cc1ccccc1 (stereo partly drawn) | 40
17 | CN(Cc1ccccc1)C(=O)[C@H](Cc1ccccc1)NC(=O)[C@@H](Cc1cn(C=O)c2ccccc12)NC(=O)C(Cc1c[nH]cn1)NC(=O)OC(C)(C)C (stereo partly drawn) | 140
18 | CC(O)C(NC(=O)CO)C(=O)N[C@H](Cc1cn(C=O)c2ccccc12)C(=O)N[C@@H](Cc1ccccc1)C(=O)N(C)Cc1ccccc1 (stereo partly drawn) | 20
19 | CC(O)C(N)C(=O)N[C@H](Cc1cn(C=O)c2ccccc12)C(=O)N[C@@H](Cc1ccccc1)C(=O)N(C)Cc1ccccc1 (stereo partly drawn) | 600
20 | CC(=O)NC(CCC(=O)N(C)C)C(=O)N[C@H](Cc1cn(C=O)c2ccccc12)C(=O)N[C@@H](Cc1ccccc1)C(=O)N(C)Cc1ccccc1 (stereo partly drawn) | 30
21 | CC(O)C(NC(=O)CCN)C(=O)N[C@H](Cc1cn(C=O)c2ccccc12)C(=O)N[C@@H](Cc1ccccc1)C(=O)N(C)Cc1ccccc1 (stereo partly drawn) | 100

target: Substance-P receptor (Cavia porcellus, UniProt P30547); assay: Compound was tested for the inhibition of [3H]SP binding to guinea pig lung membranes; Not active
Sequence (P30547 whole entry): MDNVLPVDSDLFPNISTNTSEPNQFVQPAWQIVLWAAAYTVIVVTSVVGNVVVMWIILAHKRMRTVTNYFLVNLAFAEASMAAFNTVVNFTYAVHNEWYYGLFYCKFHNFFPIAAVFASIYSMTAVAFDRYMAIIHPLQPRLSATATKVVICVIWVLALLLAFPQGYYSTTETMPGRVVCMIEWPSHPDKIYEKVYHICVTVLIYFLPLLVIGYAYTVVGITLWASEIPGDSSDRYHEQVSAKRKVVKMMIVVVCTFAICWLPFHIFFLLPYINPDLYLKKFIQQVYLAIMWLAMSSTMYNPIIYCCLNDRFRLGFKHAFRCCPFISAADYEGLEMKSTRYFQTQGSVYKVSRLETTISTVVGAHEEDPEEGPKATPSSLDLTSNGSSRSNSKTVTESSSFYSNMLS

Row | SMILES | IC50
22 | CC(O)C(NC(=O)CCC(=O)O)C(=O)N[C@H](Cc1cn(C=O)c2ccccc12)C(=O)N[C@@H](Cc1ccccc1)C(=O)N(C)Cc1ccccc1 (stereo partly drawn) | Not Active
23 | CC(O)C(NC(=O)CCCC(=O)O)C(=O)N[C@H](Cc1cn(C=O)c2ccccc12)C(=O)N[C@@H](Cc1ccccc1)C(=O)N(C)Cc1ccccc1 (stereo partly drawn) | Not Active
